# Reference: PubChem BioAssay (NCI)
#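 Where inhibition never reached the appropriate level, the endpoint shown equals the highest concentration tested. Otherwise, values were interpolated linearly from a five-concentration, 48-hour dose response in 96-well plates. GI50 = concentration required for 50% inhibition of growth. At the TGI there is no net growth.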
# Tests used:
# Assay in all cases: inhibition of tumour cell growth, NCI panel, 48 h
# [1] = tested on: 786-0 renal
# [2] = tested on: A498 renal
# [3] = tested on: A549 NSCLC
# [4] = tested on: ACHN renal
# [5] = tested on: BT-549 breast
# [6] = tested on: CAKI-1 renal
# [7] = tested on: CCRF-CEM leukemia
# [8] = tested on: COLO 205 colon
# [9] = tested on: DU-145 prostate
# [10] = tested on: EKVX NSCLC
# [11] = tested on: HCC-2998 colon
# [12] = tested on: HCT-116 colon
# [13] = tested on: HCT-15 colon
# [14] = tested on: HL-60(TB) leukemia
# [15] = tested on: HOP-62 NSCLC
# [16] = tested on: HOP-92 NSCLC
# [17] = tested on: HS 578T breast
# [18] = tested on: HT29 colon
# [19] = tested on: IGROV1 ovarian
# [20] = tested on: K-562 leukemia
# [21] = tested on: KM12 colon
# [22] = tested on: LOX IMVI melanoma
# [23] = tested on: M14 melanoma
# [24] = tested on: MALME-3M melanoma
# [25] = tested on: MCF7 breast
# [26] = tested on: MDA-MB-231 breast
# [27] = tested on: MDA-MB-435
# [28] = tested on: MOLT-4 leukemia
# [29] = tested on: NCI-H226 lung
# [30] = tested on: NCI-H460 lung
# [31] = tested on: NCI-H522 lung
# [32] = tested on: NCI/ADR-RES ovarian
# [33] = tested on: OVCAR-3 ovarian
# [34] = tested on: OVCAR-4 ovarian
# [35] = tested on: OVCAR-5 ovarian
# [36] = tested on: OVCAR-8 ovarian
# [37] = tested on: PC-3 prostate
# [38] = tested on: RPMI-8226 leukemia
# [39] = tested on: RXF 393 renal
# [40] = tested on: SF-268 CNS
# [41] = tested on: SF-295 CNS
# [42] = tested on: SF-539 CNS
# [43] = tested on: SK-MEL-2 melanoma
# [44] = tested on: SK-MEL-28 melanoma
# [45] = tested on: SK-MEL-5 melanoma
# [46] = tested on: SK-OV-3 ovarian
# [47] = tested on: SN12C renal
# [48] = tested on: SNB-19 CNS
# [49] = tested on: SNB-75 CNS
# [50] = tested on: SW-620 colon
# [51] = tested on: T-47D breast
# [52] = tested on: TK-10 renal
# [53] = tested on: U251 CNS
# [54] = tested on: UACC-257 melanoma
# [55] = tested on: UACC-62 melanoma
# [56] = tested on: UO-31 renal
# [57] = tested on: NCI-H23 lung
smiles,measurement,setting,value
Nc1nc(/C=C\c2ccc([N+](=O)[O-])s2)nc(N2CCN(c3ccccc3)CC2)n1,GI50,[1],24.2 µM
same,TGI,[1],48.7 µM
same,GI50,[2],0.0746 µM
same,TGI,[2],15.5 µM
same,GI50,[3],33.6 µM
same,TGI,[3],> 100 µM
same,GI50,[4],19 µM
same,TGI,[4],41.4 µM
same,GI50,[5],21.8 µM
same,TGI,[5],48 µM
same,GI50,[6],18.1 µM
same,TGI,[6],39.1 µM
same,GI50,[7],29.3 µM
same,TGI,[7],79.1 µM
same,GI50,[8],15.4 µM
same,TGI,[8],32.1 µM
same,GI50,[9],21.9 µM
same,TGI,[9],51.4 µM
same,GI50,[10],32.2 µM
same,TGI,[10],> 100 µM
same,GI50,[11],22.2 µM
same,TGI,[11],44.8 µM
same,GI50,[12],17.2 µM
same,TGI,[12],31.5 µM
same,GI50,[13],14.6 µM
same,TGI,[13],28.3 µM
same,GI50,[14],18.8 µM
same,TGI,[14],54.2 µM
same,GI50,[15],29 µM
same,TGI,[15],64.3 µM
same,GI50,[16],22.8 µM
same,TGI,[16],57.1 µM
same,GI50,[17],0.54 µM
same,TGI,[17],14.6 µM
same,GI50,[18],27.5 µM
same,TGI,[18],70.4 µM
same,GI50,[19],14.5 µM
same,TGI,[19],34.7 µM
same,GI50,[20],15.3 µM
same,TGI,[20],49.5 µM
same,GI50,[21],16.6 µM
same,TGI,[21],38.7 µM
same,GI50,[22],15.7 µM
same,TGI,[22],29.1 µM
same,GI50,[23],19.5 µM
same,TGI,[23],39.3 µM
same,GI50,[24],24.9 µM
same,TGI,[24],59.8 µM
same,GI50,[25],14.8 µM
same,TGI,[25],49.4 µM
same,GI50,[26],13 µM
same,TGI,[26],29.6 µM
same,GI50,[27],19.2 µM
same,TGI,[27],43.6 µM
same,GI50,[28],23.1 µM
same,TGI,[28],75.3 µM
same,GI50,[29],15.2 µM
same,TGI,[29],36.4 µM
same,GI50,[30],24.1 µM
same,TGI,[30],59.1 µM
same,GI50,[31],16 µM
same,TGI,[31],31.5 µM
same,GI50,[32],21.3 µM
same,TGI,[32],53 µM
same,GI50,[33],19 µM
same,TGI,[33],35.9 µM
same,GI50,[34],40.6 µM
same,TGI,[34],> 100 µM
same,GI50,[35],40 µM
same,TGI,[35],98.3 µM
same,GI50,[36],22.2 µM
same,TGI,[36],52.7 µM
same,GI50,[37],21.9 µM
same,TGI,[37],63.7 µM
same,GI50,[38],22.9 µM
same,TGI,[38],74 µM
same,GI50,[39],18.6 µM
same,TGI,[39],37.2 µM
same,GI50,[40],27.2 µM
same,TGI,[40],80 µM
same,GI50,[41],20 µM
same,TGI,[41],58.3 µM
same,GI50,[42],40.9 µM
same,TGI,[42],> 100 µM
same,GI50,[43],21.2 µM
same,TGI,[43],48.5 µM
same,GI50,[44],24.9 µM
same,TGI,[44],47.1 µM
same,GI50,[45],0.157 µM
same,GI50,[46],30.7 µM
same,TGI,[46],62.5 µM
same,GI50,[47],14.3 µM
same,TGI,[47],34.5 µM
same,GI50,[48],30.5 µM
same,TGI,[48],77 µM
same,GI50,[49],33.1 µM
same,TGI,[49],60.5 µM
same,GI50,[50],6.3 µM
same,TGI,[50],27.9 µM
same,GI50,[51],14.2 µM
same,TGI,[51],43.2 µM
same,GI50,[52],72.1 µM
same,TGI,[52],> 100 µM
same,GI50,[53],21.6 µM
same,TGI,[53],56 µM
same,GI50,[54],20.8 µM
same,TGI,[54],44.2 µM
same,GI50,[55],13.6 µM
same,TGI,[55],30.8 µM
same,GI50,[56],18.7 µM
same,TGI,[56],43.7 µM
CC1=C(C#N)C(=C(C#N)C#N)OC1(C)Cc1ccccc1 (centres undefined),TGI,[1],> 100 µM
same,TGI,[2],> 100 µM
same,TGI,[3],> 100 µM
same,TGI,[4],32.7 µM
same,TGI,[5],> 100 µM
same,TGI,[6],50.9 µM
same,TGI,[8],43 µM
same,TGI,[9],> 100 µM
same,TGI,[10],> 100 µM
same,TGI,[11],89.6 µM
same,TGI,[12],> 100 µM
same,TGI,[13],83 µM
same,TGI,[15],> 100 µM
same,TGI,[16],38.6 µM
same,TGI,[17],> 100 µM
same,TGI,[18],78.6 µM
same,TGI,[19],> 100 µM
same,TGI,[20],> 100 µM
same,TGI,[21],> 100 µM
same,TGI,[22],41 µM
same,TGI,[23],> 100 µM
same,TGI,[25],> 100 µM
same,TGI,[26],> 100 µM
same,TGI,[27],> 100 µM
same,TGI,[28],67.3 µM
same,TGI,[29],59.3 µM
same,TGI,[57],> 100 µM
same,TGI,[31],36.8 µM
same,TGI,[32],> 100 µM
same,TGI,[33],74.9 µM
same,TGI,[34],60.3 µM
same,TGI,[35],> 100 µM
same,TGI,[36],> 100 µM
same,TGI,[37],> 100 µM
same,TGI,[38],96.8 µM
same,TGI,[39],37.6 µM
same,TGI,[40],> 100 µM
same,TGI,[41],> 100 µM
same,TGI,[42],> 100 µM
same,TGI,[43],> 100 µM
same,TGI,[44],> 100 µM
same,TGI,[45],> 100 µM
same,TGI,[46],> 100 µM
same,TGI,[47],> 100 µM
same,TGI,[48],> 100 µM
same,TGI,[49],> 100 µM
same,TGI,[50],> 100 µM
same,TGI,[51],85.6 µM
same,TGI,[52],> 100 µM
same,TGI,[53],> 100 µM
same,TGI,[54],> 100 µM
same,TGI,[55],50.4 µM
same,TGI,[56],37 µM
